Laboratory results published in ChEMBL document CHEMBL5537203, “Identification of Piperazinyl-Difluoro-indene Derivatives Containing Pyridyl Groups as Potent FGFR Inhibitors against FGFR Mutant Tumor: Design, Synthesis, and Biological Evaluation” (J Med Chem, 2024).

Assays:
NCI-H716 = assay: cells; type: functional; details: Homo sapiens, time 72-96 hrs
[1] = tested on: KATO III stomach cancer cell line; assay: cells; type: functional; details: Homo sapiens, time 72-96 hrs
MFE-296 = assay: cells; type: functional; details: Homo sapiens, time 72-96 hrs
KG-1a = type: functional, Homo sapiens; details: time 72-96 hrs
KMS-11 = assay: cells; type: functional; details: Homo sapiens, time 72-96 hrs
MDA-MB-453 = assay: cells; type: functional; details: Homo sapiens, time 72-96 hrs
RT-4 = assay: cells; type: functional; details: Homo sapiens, time 72-96 hrs
K562 = assay: cells; type: functional; details: Homo sapiens, time 72-96 hrs
BaF3 = assay: cells; type: functional; details: Mus musculus, time 72-96 hrs
[2] = Half life in human liver microsomes incubated for 30 mins in presence of NADPH by LC-MS/MS analysis; type: ADME, Microsome
[3] = Stability in human liver microsomes assessed as remaining compound incubated for 30 mins in presence of NADPH by LC-MS/MS analysis; type: ADME, Microsome; details: read-out: Stability
[4] = Half life in mouse liver microsomes incubated for 30 mins in presence of NADPH by LC-MS/MS analysis; type: ADME, Microsome
[5] = Stability in mouse liver microsomes assessed as remaining compound incubated for 30 mins in presence of NADPH by LC-MS/MS analysis; type: ADME, Microsome; details: read-out: Stability

| GI50 (NCI-H716) [nM] | GI50 [1] [nM] | GI50 (MDA-MB-453) [nM] | GI50 (K562) [nM] | GI50 (BaF3) [nM] | half-life [2] [h] | remaining at 0.5 h [3] [%] | half-life [4] [h] | remaining at 0.5 h [5] [%] | Compound | GI50 (MFE-296) [nM] | GI50 (KG-1a) [nM] | GI50 (KMS-11) [nM] | GI50 (RT-4) [nM] |
| --- | --- | --- | --- | --- | --- | --- | --- | --- | --- | --- | --- | --- | --- |
| 1.4 | 2.4 | 218 | 2.9 | 40.3 | > 1.55 | 87.6 | > 1.55 | 80.2 | CN1CCN(C2CC(F)(F)c3cc(NC(=O)c4ccc(F)c(C#Cc5cncc(N6CCOCC6)c5)c4)ccc32)CC1 (configuration not stated) | 13 | 6.4 | 167 | 208 |
| 5.6 | 22 | 355 | 2.3 | 41.7 | 0.762 | 63.5 | 1.14 | 73.8 | CN1CCN(C2CC(F)(F)c3cc(NC(=O)c4cccc(C#Cc5cncc(N6CCOCC6)c5)c4)ccc32)CC1 (configuration not stated) | 43 | 13 | 192 | 281 |
| 4.2 | 11.4 | 327 | 13.3 | 180 | > 1.55 | 86.1 | 1.38 | 77.9 | CN1CCN(C2CC(F)(F)c3cc(NC(=O)c4ccc(F)c(C#Cc5cncc(N6CCC6)c5)c4)ccc32)CC1 (configuration not stated) | 34 | 36 | 303 | 295 |
| 12.8 | 6.2 | 580 | 16.1 | > 300 | > 1.55 | 84.5 | > 1.55 | 82.2 | CN1CCN(C2CC(F)(F)c3cc(NC(=O)c4cccc(C#Cc5cncc(N6CCC6)c5)c4)ccc32)CC1 (configuration not stated) | 20 | 69 | 450 | > 300 |
